The target of test [1] is Kelch domain of human KEAP1 (321-624 aa) (Homo sapiens (Human), UniProt Q14145). The experiment in a line: KEAP1 KELCH ThermoFluor binding assay.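 Note: Ligand-induced melting temperature shift of E. coli-expressed KEAP1 Kelch protein, Kd estimated from concentration-response curves of ΔTm.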 The conditions noted are these: KEAP Kelch […], 1,8-ANS, pH 7.0, average of results obtained, read-out: Tf Kd.
Test [2] has as its system Glo-Response ARE-luc2P HEK293 cell line. The experiment in a line: ARE luciferase reporter cell-based assay.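 Note: luciferase signal tracks Nrf2 activation of the ARE once compounds disrupt KEAP1-Nrf2 binding, read with One-Glo reagent, DMSO serving as low control.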 The conditions noted are these: Homo sapiens, HEK293, 24 h, average of results obtained. (In general: In a reporter assay the amount or activity of a reporter protein is the signal.)

SMILES strings stand for the structures. A value given as a limit tells only on which side of the number the result lay.

We go through seven molecules from patent publication US10947252B2, “Inhibitors of KEAP1-Nrf2 protein-protein interaction” (Janssen Pharmaceutica NV, priority 2018, dated 2021).

Chain of Kelch domain of human KEAP1 (321-624 aa) (Q14145 321-624): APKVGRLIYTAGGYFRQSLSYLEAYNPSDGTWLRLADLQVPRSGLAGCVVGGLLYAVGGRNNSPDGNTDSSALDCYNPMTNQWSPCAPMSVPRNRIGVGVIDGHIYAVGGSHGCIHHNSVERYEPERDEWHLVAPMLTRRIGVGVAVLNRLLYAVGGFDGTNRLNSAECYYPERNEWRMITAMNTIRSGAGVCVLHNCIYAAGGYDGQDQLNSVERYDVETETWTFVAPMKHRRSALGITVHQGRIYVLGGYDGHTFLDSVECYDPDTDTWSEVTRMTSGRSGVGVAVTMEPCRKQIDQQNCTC

Usually Kd stands for the constant that tells how readily two partners part at equilibrium. The EC50 is the concentration giving half of the maximal effect. A higher EC50 goes with lower potency in that assay. Turning to `Cc1cnc2c(c1)S(=O)(=O)N(Cc1cc([C@@H](c3ccn4c(C(F)(F)F)nnc4c3C)C(C)(C)C(=O)O)ccc1C)CC1(CC1)O2` (single isomer, unassigned) [Example 314, (*S)-2,2-Dimethyl-3-(4-methyl-3-((8′-methyl-1′,1′-dioxidospiro[cyclopropane-1,4′-pyrido[2,3-b][1,4,5]oxathiazepin]-2′(3′H)-yl)methyl)phenyl)-3-(8-methyl-3-(trifluoromethyl)-[1,2,4]triazolo[4,3-a]pyridin-7-yl)propanoic Acid], the Kd in test [1] was below 1 nM. Further, the 50% effective concentration (EC50) in test [2] came to 1 nM.

In the case of `Cc1ccc([C@@H](CC(=O)O)c2ccn3c(C(F)F)nnc3c2C)cc1CN1C[C@H]2COCCN2c2ncccc2S1(=O)=O` (single isomer, unassigned) [Example 462, (*R)-3-(3-(Difluoromethyl)-8-methyl-[1,2,4]triazolo[4,3-a]pyridin-7-yl)-3-(3-(((*S)-5,5-dioxido-7a,8,10,11-tetrahydro-[1,4]oxazino[3,4-d]pyrido[2,3-f][1,2,5]thiadiazepin-6(7H)-yl)methyl)-4-methylphenyl)propanoic Acid], the Kd in test [1] stood at 13.7 nM. The molecule also gave an EC50 in test [2] of 2930 nM.

On to `Cc1cc2cc([C@H](CC(=O)O)c3ccc(C)c(CN4C[C@@H]5CCCCN5c5ncccc5S4(=O)=O)c3)n(C)c2nn1` (single isomer, unassigned) [Example 442, (*R)-3-(3,7-Dimethyl-7H-pyrrolo[2,3-c]pyridazin-6-yl)-3-(3-(((*S)-5,5-dioxido-7,7a,8,9,10,11-hexahydro-6H-dipyrido[2,1-d:2′,3′-f][1,2,5]thiadiazepin-6-yl)methyl)-4-methylphenyl)propanoic Acid], for which the Kd in test [1] is below 1 nM. It took 553 nM to reach a half-maximal effect in test [2] (EC50).

Take `CCn1nnc2c(C)c(C(CC(=O)O)c3ccc(C)c(CN4CC5(CC5)Oc5ncccc5S4(=O)=O)n3)ccc21` (racemic) [Example 243, (R/S)-3-(6-((1′,1′-Dioxidospiro[cyclopropane-1,4′-pyrido[2,3-b][1,4,5]oxathiazepin]-2′(3′H)-yl)methyl)-5-methylpyridin-2-yl)-3-(1-ethyl-4-methyl-1H-benzo[d][1,2,3]triazol-5-yl)propanoic Acid]: the Kd in test [1] is below 1 nM. This molecule came in with an EC50 in test [2] of 35 nM.

Consider `CC[C@@H]1CN(Cc2cc(C(CC(=O)O)c3ccn4c(C(F)F)nnc4c3C)ccc2C)S(=O)(=O)c2cccnc2O1` (mixture of isomers) [Example 463, 3-(3-(Difluoromethyl)-8-methyl-[1,2,4]triazolo[4,3-a]pyridin-7-yl)-3-(3-(((R)-4-ethyl-1,1-dioxido-3,4-dihydro-2H-pyrido[2,3-b][1,4,5]oxathiazepin-2-yl)methyl)-4-methylphenyl)propanoic Acid], for which, in test [1], the Kd is below 1 nM. This molecule also showed an EC50 in test [2] of 27.6 nM.

On to `Cc1ccc(C(CC(=O)O)c2ccc3c(nnn3CC3CC3)c2C)cc1CN1CC2(COC2)Oc2ccccc2S1(=O)=O` (centres unmarked) [Example 74, 3-(1-(Cyclopropylmethyl)-4-methyl-1H-benzo[d][1,2,3]triazol-5-yl)-3-(3-((1′,1′-dioxidospiro[benzo[b][1,4,5]oxathiazepin-4,3′-oxetan]-2,(3H)-yl)methyl)-4-methylphenyl)propanoic Acid], for which the Kd in test [1] is below 1 nM. In test [2], the concentration giving a half-maximal response (EC50) was 24 nM.

Turning to `Cc1ccc(C(CC(N)=O)c2ccn3c(C(F)(F)F)nnc3c2C)cc1CN1C[C@@H]2CCCCN2c2ncccc2S1(=O)=O` (stereo in doubt) [Example 547, 3-(3-(((*S)-5,5-Dioxido-7,7a,8,9,10,11-hexahydro-6H-dipyrido[2,1-d:2′,3′-f][1,2,5]thiadiazepin-6-yl)methyl)-4-methylphenyl)-3-(8-methyl-3-(trifluoromethyl)-[1,2,4]triazolo[4,3-a]pyridin-7-yl)propanamide], the Kd in test [1] is 602 nM. This molecule also returned an EC50 in test [2] of 9640 nM.
